Reference: patent US20060229348A1, “Oxindole oxazolidinone as antibacterial agent” (priority 2005, published 2006)
In brackets after ≈: the same amount, converted by molar mass.

What was measured:
MAO-A = target: T1, MAO-A (Homo sapiens, UniProt P21397); assay: monoamine oxidase inhibition, MAO-A; assay type: biochemical; details: substrate at Km 64 μM; MAO-A 0.01 mg/mL
T1 sequence (P21397 1-527): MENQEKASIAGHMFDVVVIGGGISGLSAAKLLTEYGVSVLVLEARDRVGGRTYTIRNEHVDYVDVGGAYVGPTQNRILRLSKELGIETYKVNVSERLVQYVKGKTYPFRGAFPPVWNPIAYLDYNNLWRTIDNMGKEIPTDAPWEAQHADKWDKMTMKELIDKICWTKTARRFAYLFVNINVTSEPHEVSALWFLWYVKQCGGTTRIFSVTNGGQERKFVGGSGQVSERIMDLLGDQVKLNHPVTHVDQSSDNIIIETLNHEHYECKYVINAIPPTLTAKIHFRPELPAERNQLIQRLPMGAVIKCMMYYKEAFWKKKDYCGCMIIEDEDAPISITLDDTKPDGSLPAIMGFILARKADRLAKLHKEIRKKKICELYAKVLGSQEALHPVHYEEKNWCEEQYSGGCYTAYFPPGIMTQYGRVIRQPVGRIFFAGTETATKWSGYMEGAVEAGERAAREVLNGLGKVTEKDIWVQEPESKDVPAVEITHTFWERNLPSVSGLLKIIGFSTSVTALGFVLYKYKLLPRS
Method: (§1) MAO-A and B inhibition were analyzed by measuring the inhibition of conversion of an MAO substrate, 1-methyl-4-(1-methyl-2-pyrryl)-1,2,3,6-tetrahydropyridine, to its dihydropyridinium metabolite (λ=421 nm). The substrate concentration was equal to the Km (64 μM for MAO-A and 43 μM for MAO-B). The MAO-A concentration was 0.01 mg/mL, and the MAO-B concentration was 0.008 mg/mL. Each inhibitor was tested at seven concentrations. Percent inhibition at each concentration was established relative to the uninhibited control rate, and the IC50 and Ki values were calculated.

MAO-B = target: T2, MAO-B (Homo sapiens, UniProt P27338); assay: monoamine oxidase inhibition, MAO-B; assay type: biochemical; details: substrate at Km 43 μM; MAO-B 0.008 mg/mL
T2 sequence (P27338 1-520): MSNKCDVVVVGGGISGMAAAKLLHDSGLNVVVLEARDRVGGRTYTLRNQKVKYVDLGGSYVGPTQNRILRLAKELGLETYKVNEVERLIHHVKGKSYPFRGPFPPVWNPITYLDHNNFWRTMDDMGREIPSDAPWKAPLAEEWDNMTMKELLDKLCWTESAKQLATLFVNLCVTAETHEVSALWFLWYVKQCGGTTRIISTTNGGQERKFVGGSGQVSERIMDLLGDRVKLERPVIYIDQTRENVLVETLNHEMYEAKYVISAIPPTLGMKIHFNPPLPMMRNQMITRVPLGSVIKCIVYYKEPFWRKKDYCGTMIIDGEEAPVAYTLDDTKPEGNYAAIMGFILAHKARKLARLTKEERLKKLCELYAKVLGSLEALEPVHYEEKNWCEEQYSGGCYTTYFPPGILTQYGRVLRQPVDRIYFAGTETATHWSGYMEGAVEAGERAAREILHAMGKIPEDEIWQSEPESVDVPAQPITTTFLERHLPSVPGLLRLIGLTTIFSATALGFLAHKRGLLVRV
Method: as §1

S. aureus (LORSA) = assay: in vitro antibacterial activity (MIC), S. aureus (LORSA); assay type: cell-based; details: Staphylococcus aureus
Excerpt: (§2) The in vitro antibacterial activity of the compound of the present invention may be assessed by following procedures recommended in (1) National Committee for Clinical Laboratory Standards (January 2003), Methods for dilution antimicrobial tests for bacteria that grow aerobically, Approved Standard (6th ed), M7-A6, NCCLS, Wayne, Pa.; (2) National Committee for Clinical Laboratory Standards (March 2001), Methods for antimicrobial susceptibility testing of anaerobic bacteria, Approved Standard (5th ed), M11-A4, NCCLS, Wayne, Pa.; (3) National Committee for Clinical Laboratory Standards (Jan. 2003), MIC testing supplemental tables, M100-S13 (for use with M7-A6), NCCLS, Wayne, Pa.; and (4) Murray P R, Baron E J, Jorgensen J H, et al. Manual of Clinical Microbiology (8th ed) Washington, D.C.: American Society for Microbiology Press, 2003. The antibacterial activity can be presented in the form of MIC value. The MIC value is the lowest concentration of drug, which prevented macroscopically visible growth under the conditions of the test.

E. faecium (VREF) = assay: in vitro antibacterial activity (MIC), E. faecium (VREF); assay type: cell-based; details: Enterococcus faecium
Excerpt: as §2

S. pneumoniae (LRSA) = assay: in vitro antibacterial activity (MIC), S. pneumoniae (LRSA); assay type: cell-based; details: Streptococcus pneumoniae
Excerpt: as §2

E. faecalis (VREF) = assay: in vitro antibacterial activity (MIC), E. faecalis (VREF); assay type: cell-based; details: Enterococcus faecalis
Excerpt: as §2

S. pneumoniae SV1 SP-3 = assay: in vitro antibacterial activity, S. pneumoniae SV1 SP-3; assay type: cell-based; details: Streptococcus pneumoniae, SV1SP3; strain SV1 SP-3
Excerpt: as §2

S. aureus UC-76 SA-1 = assay: in vitro antibacterial activity, S. aureus UC-76 SA-1; assay type: cell-based; details: Staphylococcus aureus, UC76; strain UC-76 SA-1
Excerpt: as §2

E. faecalis MGH-2 EF 1-1 = assay: in vitro antibacterial activity, E. faecalis MGH-2 EF 1-1; assay type: cell-based; details: Enterococcus faecalis, MGH2EF11; strain MGH-2 EF 1-1
Excerpt: as §2

| Compound | Ki (MAO-A) [µM] | Ki (MAO-B) [µM] | MIC90 (S. aureus (LORSA)) [µg/mL] | MIC90 (E. faecium (VREF)) [µg/mL] | MIC90 (S. pneumoniae (LRSA)) [µg/mL] | MIC90 (E. faecalis (VREF)) [µg/mL] | MIC90 (S. pneumoniae SV1 SP-3) [µg/mL] | MIC90 (S. aureus UC-76 SA-1) [µg/mL] | MIC90 (E. faecalis MGH-2 EF 1-1) [µg/mL] |
| --- | --- | --- | --- | --- | --- | --- | --- | --- | --- |
| COC(=O)NC[C@H]1CN(c2ccc3c(c2)CC(=O)N3C(C)CF)C(=O)O1 (stereo partly drawn) [Example 8, (S)-{3-[1-(2-fluoro-1-methyl-ethyl)-2-oxo-2,3-dihydro-1H-indol-5-yl]-2-oxo-oxazolidin-5-ylmethyl}-carbamic acid methyl ester] | – | – | – | – | – | – | 4 (≈ 10.9 µM) | 4 (≈ 10.9 µM) | 4 (≈ 10.9 µM) |
| COC(=O)NC[C@H]1CN(c2ccc3c(c2)CC(=O)N3C(C)C)C(=O)O1 [Example 4, (S)-[3-(1-isopropyl-2-oxo-2,3-dihydro-1H-indol-5-yl)-2-oxo-oxazolidin-5-ylmethyl]-carbamic acid methyl ester] | – | – | – | – | – | – | 4 (≈ 11.5 µM) | 8 (≈ 23 µM) | 8 (≈ 23 µM) |
| COC(=O)NC[C@H]1CN(c2ccc3c(c2)CC(=O)N3C2CC2)C(=O)O1 [Example 6, (S)-[3-(1-cyclopropyl-2-oxo-2,3-dihydro-1H-indol-5-yl)-2-oxo-oxazolidin-5-ylmethyl]-carbamic acid methyl ester] | – | – | – | – | – | – | 4 (≈ 11.6 µM) | 4 (≈ 11.6 µM) | 4 (≈ 11.6 µM) |
| COC(=O)NC[C@H]1CN(c2ccc3c(c2)CC(=O)N3CC2CC2)C(=O)O1 [Example 7, (S)-[3-(1-cyclopropylmethyl-2-oxo-2,3-dihydro-1H-indol-5-yl)-2-oxo-oxazolidin-5-ylmethyl]-carbamic acid methyl ester] | – | – | – | – | – | – | 4 (≈ 11.1 µM) | 8 (≈ 22.3 µM) | 8 (≈ 22.3 µM) |

More lines, now with the values ahead:

| Ki (MAO-A) [µM] | Ki (MAO-B) [µM] | MIC90 (S. aureus (LORSA)) [µg/mL] | MIC90 (E. faecium (VREF)) [µg/mL] | MIC90 (S. pneumoniae (LRSA)) [µg/mL] | MIC90 (E. faecalis (VREF)) [µg/mL] | MIC90 (S. pneumoniae SV1 SP-3) [µg/mL] | MIC90 (S. aureus UC-76 SA-1) [µg/mL] | MIC90 (E. faecalis MGH-2 EF 1-1) [µg/mL] | Compound |
| --- | --- | --- | --- | --- | --- | --- | --- | --- | --- |
| 880 | 57.4 | 4 (≈ 12 µM) | 4 (≈ 12 µM) | 2 (≈ 6 µM) | 4 (≈ 12 µM) | – | – | – | CCN1C(=O)Cc2cc(N3C[C@H](CNC(=O)OC)OC3=O)ccc21 [Compound No. 1, (5S)-[3-(1-ethyl-2-oxo-2,3-dihydro-1H-indol-5-yl)-2-oxo-oxazolidin-5-ylmethyl]-carbamic acid methyl ester] |
| – | – | – | – | – | – | 1 (≈ 3.13 µM) | 4 (≈ 12.5 µM) | 2 (≈ 6.26 µM) | COC(=O)NC[C@H]1CN(c2ccc3c(c2)CC(=O)N3C)C(=O)O1 [Example 2, (S)-[3-(1-methyl-2-oxo-2,3-dihydro-1H-indol-5-yl)-2-oxo-oxazolidin-5-ylmethyl]-carbamic acid methyl ester] |
| – | – | – | – | – | – | 2 (≈ 5.69 µM) | 4 (≈ 11.4 µM) | 2 (≈ 5.69 µM) | COC(=O)NC[C@H]1CN(c2ccc3c(c2)CC(=O)N3CCF)C(=O)O1 [Example 3, (S)-{3-[1-(2-fluoro-ethyl)-2-oxo-2,3-dihydro-1H-indol-5-yl]-2-oxo-oxazolidin-5-ylmethyl}-carbamic acid methyl ester] |
| – | – | – | – | – | – | 4 (≈ 11.5 µM) | 8 (≈ 23 µM) | 4 (≈ 11.5 µM) | CCCN1C(=O)Cc2cc(N3C[C@H](CNC(=O)OC)OC3=O)ccc21 [Example 5, (S)-[2-oxo-3-(2-oxo-1-propyl-2,3-dihydro-1H-indol-5-yl)-oxazolidin-5-ylmethyl]-carbamic acid methyl ester] |
